Data from PMC12317126 (Nature Communications, 2025).

Experiments:
[1] = target: T1, cystic fibrosis transmembrane conductance regulator (CFTR) (Homo sapiens, UniProt P13569, W401A); experiment: inside-out patch-clamp, inhibition kinetics at […]; assay type: cell-based
T1 construct: C-terminally GFP-fused CFTR in CHO-K1 cells

[2] = target: T2, cystic fibrosis transmembrane conductance regulator (CFTR) (Homo sapiens, UniProt P13569); experiment: ATP hydrolysis of purified CFTR (kcat […] to […] per minute at […]); inside-out patch-clamp; assay type: biochemical
T2 construct: WT human CFTR, PKA-phosphorylated
T2 sequence (P13569 whole entry): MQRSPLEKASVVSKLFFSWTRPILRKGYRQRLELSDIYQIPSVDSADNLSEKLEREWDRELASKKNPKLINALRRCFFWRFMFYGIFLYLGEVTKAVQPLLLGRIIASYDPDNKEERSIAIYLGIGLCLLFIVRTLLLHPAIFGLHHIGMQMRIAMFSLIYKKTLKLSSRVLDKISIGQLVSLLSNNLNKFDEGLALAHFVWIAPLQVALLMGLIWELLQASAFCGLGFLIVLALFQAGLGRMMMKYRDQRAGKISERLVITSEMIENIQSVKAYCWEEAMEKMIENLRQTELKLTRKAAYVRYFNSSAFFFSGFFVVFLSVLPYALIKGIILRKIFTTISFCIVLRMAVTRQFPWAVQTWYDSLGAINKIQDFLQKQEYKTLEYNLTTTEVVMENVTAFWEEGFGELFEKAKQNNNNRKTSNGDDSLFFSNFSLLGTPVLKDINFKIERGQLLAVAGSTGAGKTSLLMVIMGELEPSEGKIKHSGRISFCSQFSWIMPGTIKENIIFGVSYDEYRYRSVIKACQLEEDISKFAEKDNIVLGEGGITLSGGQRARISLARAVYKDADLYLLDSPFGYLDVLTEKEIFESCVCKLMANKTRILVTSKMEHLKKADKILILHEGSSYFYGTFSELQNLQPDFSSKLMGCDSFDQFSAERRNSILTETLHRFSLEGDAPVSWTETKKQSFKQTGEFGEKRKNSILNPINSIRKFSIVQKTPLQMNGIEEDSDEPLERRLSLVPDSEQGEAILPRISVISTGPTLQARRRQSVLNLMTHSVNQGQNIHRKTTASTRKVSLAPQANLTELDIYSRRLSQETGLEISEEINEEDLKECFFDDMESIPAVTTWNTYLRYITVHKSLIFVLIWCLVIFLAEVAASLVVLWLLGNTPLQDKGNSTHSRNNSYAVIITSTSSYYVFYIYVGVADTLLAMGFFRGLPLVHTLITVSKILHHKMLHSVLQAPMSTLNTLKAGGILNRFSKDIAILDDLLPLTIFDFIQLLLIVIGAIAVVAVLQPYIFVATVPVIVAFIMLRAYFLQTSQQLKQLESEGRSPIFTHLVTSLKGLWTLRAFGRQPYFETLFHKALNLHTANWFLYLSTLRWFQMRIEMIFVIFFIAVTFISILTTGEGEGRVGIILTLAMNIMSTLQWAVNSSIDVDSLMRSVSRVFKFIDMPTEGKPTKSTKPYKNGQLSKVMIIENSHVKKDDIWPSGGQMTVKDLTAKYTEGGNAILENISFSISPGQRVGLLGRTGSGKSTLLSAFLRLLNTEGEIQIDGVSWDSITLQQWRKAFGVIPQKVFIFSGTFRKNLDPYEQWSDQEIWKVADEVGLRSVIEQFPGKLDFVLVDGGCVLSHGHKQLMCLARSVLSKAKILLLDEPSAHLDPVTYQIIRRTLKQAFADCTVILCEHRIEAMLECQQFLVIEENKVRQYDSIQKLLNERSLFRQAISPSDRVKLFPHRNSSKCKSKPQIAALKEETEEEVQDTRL

T1 sequence (P13569 whole entry W401A, the tested form may be a part): as the sequence (P13569 whole entry) above, with W401A counted along it

Row | SMILES | inside-out patch-clamp, inhibition kinetics at 10 μM [1] | inhibition at 10 µM [2] [%]
1 | Cn1c(=O)c2c(-c3ccccc3)n3c(c2n(C)c1=O)[C@H](c1ccc(Br)o1)Oc1ccc(C(=O)O)cc1-3 [(R)-BPO-27] | 4.5 ± 0.8 s (t1/2 of inhibition at 10 µM) | –
2 | O=C(O)c1ccc(/C=C2\SC(=S)N(c3cccc(C(F)(F)F)c3)C2=O)cc1 [CFTRinh-172] | – | 72
